Our source for the IC50 values is patent US12503438B2, “Compounds for the treatment of kinase-dependent disorders” (Exelixis, Inc., priority 2019, dated 2025).

One assay has as its target KDR (Homo sapiens, UniProt P35968). Put plainly: KDR autophosphorylation ELISA in HUVEC cells. It counts as cell-based. Details: endogenous in cells; host or cells: HUVEC (Lonza #C2519A). The note with it: cellular activity, VEGF165-stimulated, phospho-KDR ELISA. In short, it runs like this: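 Compound pretreatment (1 h, 0.3% DMSO) of serum-starved HUVEC preceded a 5 min pulse of 100 ng/mL VEGF165, after which cells were lysed. Phospho-KDR was quantified by ELISA relative to stimulated and unstimulated controls.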
Background: In an ELISA, binding on a coated surface is turned into a signal by an enzyme label.

For the next assay, the target named is Met (Homo sapiens, UniProt P08581). Description: Met autophosphorylation ELISA in PC-3 cells. In kind it is cell-based. Details: endogenous in cells; host or cells: PC-3 prostate cancer cells (ATCC #CRL-1435). The note with it: cellular activity, HGF-stimulated, phospho-Met ELISA, read-out: c-Met IC50. Summed up: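 PC-3 cells serum-starved 3 h, treated 1 h with 8-point compound series (0.3% DMSO), then stimulated with 100 ng/mL human HGF for 10 min. Lysate phospho-Met (panTyr) measured by sandwich ELISA; IC50 from 4-parameter logistic fit against DMSO and reference-inhibitor controls.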
Chain of Met (P08581 25-1390): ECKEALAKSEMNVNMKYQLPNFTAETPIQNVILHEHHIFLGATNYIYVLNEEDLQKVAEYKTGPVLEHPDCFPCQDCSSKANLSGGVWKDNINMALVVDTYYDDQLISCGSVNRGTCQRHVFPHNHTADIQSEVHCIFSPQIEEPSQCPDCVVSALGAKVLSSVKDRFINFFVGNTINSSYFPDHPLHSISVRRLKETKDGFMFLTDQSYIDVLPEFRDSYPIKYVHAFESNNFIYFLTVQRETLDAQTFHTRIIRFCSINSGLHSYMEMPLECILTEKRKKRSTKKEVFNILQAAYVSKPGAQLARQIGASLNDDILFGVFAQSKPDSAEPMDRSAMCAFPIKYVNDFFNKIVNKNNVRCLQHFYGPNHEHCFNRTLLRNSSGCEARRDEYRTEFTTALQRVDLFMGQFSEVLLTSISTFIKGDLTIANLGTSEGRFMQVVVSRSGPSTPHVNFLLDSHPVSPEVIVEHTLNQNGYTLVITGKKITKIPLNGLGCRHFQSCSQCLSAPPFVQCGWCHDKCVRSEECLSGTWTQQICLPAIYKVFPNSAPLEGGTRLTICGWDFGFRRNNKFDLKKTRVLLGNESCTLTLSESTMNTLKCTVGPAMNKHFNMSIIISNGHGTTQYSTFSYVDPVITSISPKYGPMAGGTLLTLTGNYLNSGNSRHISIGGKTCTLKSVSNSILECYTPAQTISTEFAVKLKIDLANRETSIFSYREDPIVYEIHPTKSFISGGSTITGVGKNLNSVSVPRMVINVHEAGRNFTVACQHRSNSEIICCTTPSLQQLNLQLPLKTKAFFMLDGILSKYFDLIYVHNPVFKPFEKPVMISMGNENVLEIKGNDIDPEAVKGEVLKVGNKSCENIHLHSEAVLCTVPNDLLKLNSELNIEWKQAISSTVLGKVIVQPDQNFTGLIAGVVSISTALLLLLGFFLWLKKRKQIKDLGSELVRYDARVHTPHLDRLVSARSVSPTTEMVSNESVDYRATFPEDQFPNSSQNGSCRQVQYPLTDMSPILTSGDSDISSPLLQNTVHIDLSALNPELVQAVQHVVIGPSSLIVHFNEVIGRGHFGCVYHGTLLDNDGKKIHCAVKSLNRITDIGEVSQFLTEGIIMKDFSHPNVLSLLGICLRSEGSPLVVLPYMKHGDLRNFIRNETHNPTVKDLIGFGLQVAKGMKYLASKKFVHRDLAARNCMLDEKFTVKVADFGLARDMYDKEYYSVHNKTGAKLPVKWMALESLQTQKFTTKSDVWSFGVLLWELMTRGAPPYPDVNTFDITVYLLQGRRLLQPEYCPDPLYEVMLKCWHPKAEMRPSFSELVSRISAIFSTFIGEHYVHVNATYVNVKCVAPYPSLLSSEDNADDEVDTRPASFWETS

The target of another assay is T1, Human Mer (Homo sapiens, UniProt Q12866).
T1 construct: Human Mer (residues R557-E882 with H628Q and R794A, 0.7 nM); purchased Eurofins Pharma Discovery Services UK Limited (KinaseProfiler service)
T1 sequence (Q12866 557-882 limits assumed): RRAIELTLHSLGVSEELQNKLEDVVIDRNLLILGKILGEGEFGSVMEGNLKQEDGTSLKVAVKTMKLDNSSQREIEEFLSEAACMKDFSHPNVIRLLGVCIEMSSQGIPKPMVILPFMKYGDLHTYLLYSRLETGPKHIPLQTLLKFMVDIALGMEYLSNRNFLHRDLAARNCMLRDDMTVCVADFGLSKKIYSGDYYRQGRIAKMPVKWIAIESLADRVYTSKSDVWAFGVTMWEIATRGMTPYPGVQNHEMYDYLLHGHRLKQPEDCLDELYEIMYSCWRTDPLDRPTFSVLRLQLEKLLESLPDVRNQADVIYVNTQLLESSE
Put plainly: Human Mer kinase assay (33P-phosphoryl transfer radiometric, KinaseProfiler). Conditions: biochemical activity; 10 μM ATP. Summed up: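 Radiometric filter-binding assay with human Mer R557-E882 (H628Q/R794A; 0.7 nM) in MOPS pH 7.0. Nine half-log compound concentrations (top 1 μM, 2% DMSO) gave IC50 by variable-slope sigmoidal fit.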

Chain of KDR (P35968 20-1356): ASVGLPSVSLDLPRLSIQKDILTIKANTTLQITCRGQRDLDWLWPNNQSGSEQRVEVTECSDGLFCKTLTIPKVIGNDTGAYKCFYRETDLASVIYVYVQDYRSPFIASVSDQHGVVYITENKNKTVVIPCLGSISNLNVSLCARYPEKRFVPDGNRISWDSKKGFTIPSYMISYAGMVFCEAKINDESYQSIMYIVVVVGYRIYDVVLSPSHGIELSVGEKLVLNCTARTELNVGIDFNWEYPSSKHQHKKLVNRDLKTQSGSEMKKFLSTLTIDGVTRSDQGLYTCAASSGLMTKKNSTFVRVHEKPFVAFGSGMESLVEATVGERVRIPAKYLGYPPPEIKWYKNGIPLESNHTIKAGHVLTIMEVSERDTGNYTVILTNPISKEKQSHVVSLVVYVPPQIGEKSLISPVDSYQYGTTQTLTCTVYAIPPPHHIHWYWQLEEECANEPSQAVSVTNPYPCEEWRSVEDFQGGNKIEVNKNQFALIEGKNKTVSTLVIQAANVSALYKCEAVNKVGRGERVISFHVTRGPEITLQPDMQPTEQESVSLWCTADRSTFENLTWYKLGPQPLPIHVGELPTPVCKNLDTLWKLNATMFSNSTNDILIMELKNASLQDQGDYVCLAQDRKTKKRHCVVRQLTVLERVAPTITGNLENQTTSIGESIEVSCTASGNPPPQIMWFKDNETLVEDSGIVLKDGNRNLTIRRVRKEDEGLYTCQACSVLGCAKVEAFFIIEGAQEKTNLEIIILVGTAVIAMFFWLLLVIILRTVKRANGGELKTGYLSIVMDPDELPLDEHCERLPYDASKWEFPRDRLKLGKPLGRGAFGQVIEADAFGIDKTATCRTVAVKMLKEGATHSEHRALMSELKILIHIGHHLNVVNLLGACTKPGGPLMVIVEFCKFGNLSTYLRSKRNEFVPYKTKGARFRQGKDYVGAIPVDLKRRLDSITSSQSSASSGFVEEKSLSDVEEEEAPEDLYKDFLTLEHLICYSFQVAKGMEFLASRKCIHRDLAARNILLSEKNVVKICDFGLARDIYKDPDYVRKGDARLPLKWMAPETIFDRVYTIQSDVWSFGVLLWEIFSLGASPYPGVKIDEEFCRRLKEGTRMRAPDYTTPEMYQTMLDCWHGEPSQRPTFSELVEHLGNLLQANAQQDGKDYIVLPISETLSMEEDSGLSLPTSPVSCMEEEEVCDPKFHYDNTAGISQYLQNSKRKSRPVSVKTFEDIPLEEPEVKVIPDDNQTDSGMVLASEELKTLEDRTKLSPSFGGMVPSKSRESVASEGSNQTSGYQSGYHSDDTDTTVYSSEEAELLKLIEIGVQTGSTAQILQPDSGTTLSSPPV

The IC50 is the concentration that inhibits the measured activity by half. Consider `Cn1cc(-c2ccc3c(Oc4ccc(NC(=O)C5(C(=O)N6CCc7cc(F)ccc76)CC5)cc4)ccnc3c2)cn1` [Compound 81, 1-(5-Fluoro-2,3-dihydroindole-1-carbonyl)-N-[4-[7-(1-methylpyrazol-4-yl)quinolin-4-yl]oxyphenyl]cyclopropane-1-carboxamide], for which the IC50 on KDR is above 300 nM; at Met it was 10 to 100 nM; against Human Mer it was 10 to 100 nM.
Take `O=C(Nc1ccc(F)cc1)C1(C(=O)Nc2ccc(Oc3ccnc4cc(-c5cnn(CC(F)F)c5)ccc34)cc2)CC1` [Compound 15, 1-N-[4-[7-[1-(2,2-Difluoroethyl)pyrazol-4-yl]quinolin-4-yl]oxyphenyl]-1-N′-(4-fluorophenyl)cyclopropane-1,1-dicarboxamide]: the IC50 is 10 to 100 nM against KDR, 10 to 100 nM on Met and at most 10 nM at Human Mer.
Regarding `Cn1nccc1-c1ccc2c(Oc3ccc(NC(=O)C4(C(=O)Nc5ccc(F)cc5)CC4)cc3)ccnc2c1` [Compound 54, 1-N′-(4-Fluorophenyl)-1-N-[4-[7-(2-methylpyrazol-3-yl)quinolin-4-yl]oxyphenyl]cyclopropane-1,1-dicarboxamide], the figures for the IC50 on KDR, on Met and at Human Mer were 10 to 100 nM, 10 to 100 nM and at most 10 nM, respectively.
For `O=C(Nc1ccc(F)cc1)C1(C(=O)Nc2ccc(Oc3ccnc4cc(-c5cnn(C6CCNCC6)c5)ccc34)cc2)CC1` [Compound 60, 1-N′-(4-Fluorophenyl)-1-N-[4-[7-(1-piperidin-4-ylpyrazol-4-yl)quinolin-4-yl]oxyphenyl]cyclopropane-1,1-dicarboxamide], the values for the half-maximal inhibitory concentration (IC50) against KDR, on Met and on Human Mer were 10 to 100 nM, 10 to 100 nM and at most 10 nM, respectively.
In the case of `Cn1ncc(-c2ccc3c(Oc4ccc(NC(=O)C5(C(=O)Nc6ccc(F)cc6)CC5)cc4)ccnc3c2)n1` [Compound 86, 1-N′-(4-Fluorophenyl)-1-N-[4-[7-(2-methyltriazol-4-yl)quinolin-4-yl]oxyphenyl]cyclopropane-1,1-dicarboxamide], the 50% inhibitory concentration (IC50) at KDR was at most 10 nM; on Met, 10 to 100 nM; against Human Mer, at most 10 nM.
